This note sets out measurements from paper PMC11278161 (Marine Drugs, 2024).

pIC50: −log10 of the molar value. *1 amine or outer side, *2 acyl side, *3 side chain or, on linkers, in order; H or OH if unused. Where a SMILES comes first, the peptide text is derived from it. Bridges are numbered along the chain shown (N, C = ends). X1 = CC[C@@]1(OC(=O)CCC(=O)NCCOCCOCCOCCn2cc(COc3cc(C[*:1])cc(C[*:2])c3)nn2)C(=O)OCc2c1cc1n(c2=O)Cc2cc3ccccc3nc2-1; X2 = CC[C@@]1(OC(=O)Cn2cc(COc3cc(C[*:1])cc(C[*:2])c3)nn2)C(=O)OCc2c1cc1n(c2=O)Cc2cc3ccccc3nc2-1

In the series the test system is A549 cells. The settings on record: human.

Usually pIC50 stands for the negative decadic logarithm of the IC50, by convention in mol/L. A lower pIC50 goes with a large IC50. Compound `CC[C@H](C)[C@@H]1NC(=O)[C@H](CC(N)=O)NC(=O)[C@@H]2CCCN2C(=O)[C@H](CC(N)=O)NC(=O)[C@H](CC(N)=O)NC(=O)[C@H](C(C)C)NC(=O)[C@H](CCCNC(=N)N)NC(=O)[C@@H]2CSSC[C@H](NC(=O)CNC(=O)[C@@H](N)CO)C(=O)N[C@@H](CSCc3cc(cc(OCc4cn(CC(=O)O[C@]5(CC)C(=O)OCc6c5cc5n(c6=O)Cc6cc7ccccc7nc6-5)nn4)c3)CSC[C@@H](C(N)=O)NC1=O)C(=O)N[C@@H](CO)C(=O)N[C@@H](CC(N)=O)C(=O)N1CCC[C@H]1C(=O)N[C@@H](C)C(=O)N2` [LsIA[2,4]-8] (H-SGCCSNPACRVNNPNIC-NH2; disulfide 3-9; linker 4-17 via X2) had a pIC50 of 6.67.
Under `CC[C@H](C)[C@@H]1NC(=O)[C@H](CC(N)=O)NC(=O)[C@@H]2CCCN2C(=O)[C@H](CC(N)=O)NC(=O)[C@H](CC(N)=O)NC(=O)[C@H](C(C)C)NC(=O)[C@H](CCCNC(=N)N)NC(=O)[C@@H]2CSSC[C@H](NC(=O)CNC(=O)[C@@H](N)CO)C(=O)N[C@@H](CSCc3cc(cc(OCc4cn(CCOCCOCCOCCNC(=O)CCC(=O)O[C@]5(CC)C(=O)OCc6c5cc5n(c6=O)Cc6cc7ccccc7nc6-5)nn4)c3)CSC[C@@H](C(N)=O)NC1=O)C(=O)N[C@@H](CO)C(=O)N[C@@H](CC(N)=O)C(=O)N1CCC[C@H]1C(=O)N[C@@H](C)C(=O)N2` [LsIA[2,4]-9] (H-SGCCSNPACRVNNPNIC-NH2; disulfide 3-9; linker 4-17 via X1) stands 6.47.
